“And” between values parts separate entries of the source, which are not always exact repeats. Equal values may be shown once. Read-outs that look alike come from different tables or passages of the source.
Key:
[1] = system: Diabrotica balteata; test: Diabrotica balteata spray test; assay type: in vivo; conditions: 500 g/ha (=160 µg/Kavität); wheat (Triticum aestivum) with beetle larvae; after 7 days; 100 % = all wheat plants grown as in untreated, uninfected control
Source text: (§1) Zur Herstellung einer zweckmäßigen Wirkstoffzubereitung löst man 1 Gewichtsteil Wirkstoff mit den angegebenen Gewichtsteilen Lösungsmittel und füllt mit Wasser, welches eine Emulgatorkonzentration von 1000 ppm enthält, bis zum Erreichen der gewünschten Konzentration auf. Zur Herstellung weiterer Testkonzentrationen wird mit emulgatorhaltigem Wasser verdünnt.
Vorgequollene Weizenkörner (Triticum aestivum) werden in einer mit Agar und etwas Wasser gefüllten Multiwell-Platte für einen Tag inkubiert (5 Saatkörner pro Kavität). Die gekeimten Weizenkörner werden mit einer Wirkstoffzubereitung der gewünschten Konzentration gespritzt. Anschließend wird jede Kavität mit 10-20 Käferlarven von Diabrotica balteata infiziert.
Nach 7 Tagen wird die Wirkung in % bestimmt. Dabei bedeutet 100 %, dass alle Weizenpflanzen wie in der unbehandelten, nicht infizierten Kontrolle gewachsen sind; 0 % bedeutet, dass keine Weizenpflanze gewachsen ist.

[2] = logP determination by HPLC on reversed-phase (C18) columns, OECD Guideline 117; assay type: physicochemical
Source text: Die Eichung erfolgt mit unverzweigten Alkan-2-onen (mit 3 bis 16 Kohlenstoffatomen), deren logP-Werte bekannt sind (Bestimmung der logP-Werte anhand der Retentionszeiten durch lineare Interpolation zwischen zwei aufeinander folgenden Alkanonen).

[3] = system: Tetranychus urticae; test: Tetranychus urticae spray test, OP-resistant; assay type: in vivo; conditions: 500 g/ha; bean leaf discs (Phaseolus vulgaris), all stages, OP-resistent; after 6 days
Source text: Bei diesem Test zeigten z. B. die folgenden Verbindungen der Herstellungsbeispiele Wirkung von 100 % bei einer Aufwandmenge von 500 g/ha: 1. Tetranychus urticae - Sprühtest, OP-resistent
as §1
Bohnenblattscheiben (Phaseolus vulgaris), die von allen Stadien der Gemeinen Spinnmilbe (Tetranychus urticae) befallen sind, werden mit einer Wirkstoffzubereitung der gewünschten Konzentration gespritzt.
Nach 6 Tagen wird die Wirkung in % bestimmt. Dabei bedeutet 100 %, dass alle Spinnmilben abgetötet wurden; 0 % bedeutet, dass keine Spinnmilben abgetötet wurden.

[4] = system: Myzus persicae; test: Myzus persicae oral test; assay type: in vivo; conditions: 20 ppm; mixed population, uptake through Parafilm; after 5 days
Method: Bei diesem Test zeigten z. B. die folgenden Verbindungen der Herstellungsbeispiele Wirkung von 100 % bei einer Aufwandmenge von 500 g/ha (=160 µg/Kavität): 1, 2, 3, 5, 6, 7, 8, 9, 10, 11, 12. Myzus persicae - Oraltest
Zur Herstellung einer zweckmäßigen Wirkstoffzubereitung löst man 1 Gewichtsteil Wirkstoff mit den angegebenen Gewichtsteilen Lösungsmittel und füllt mit Wasser bis zum Erreichen der gewünschten Konzentration auf.
50 µl der Wirkstoffzubereitung werden in Mikrotiterplatten überführt und mit 150µl IPL41Insektenmedium (33% + 15% Zucker) auf eine Endvolumen von 200 µl aufgefüllt. Anschließend werden die Platten mit Parafilm verschlossen, durch den eine gemischte Population der Grünen Pfirsichblattlaus (Myzus persicae), die sich in einer zweiten Mikrotiterplatte befindet, hindurchstechen und die Lösung aufnehmen kann.
(§2) Nach 5 Tagen wird die Wirkung in % bestimmt. Dabei bedeutet 100 %, dass alle Blattläuse abgetötet wurden; 0 % bedeutet, dass keine Blattläuse abgetötet wurden.

[5] = system: Myzus persicae; test: Myzus persicae spray test; assay type: in vivo; conditions: 100 g/ha; Chinese cabbage leaf discs (Brassica pekinensis), all stages; after 5 days
Source text: Bei diesem Test zeigten z. B. die folgenden Verbindungen der Herstellungsbeispiele Wirkung von 100 % bei einer Aufwandmenge von 20 ppm: 1. Myzus persicae - Sprühtest
as §1
Chinakohlblattscheiben (Brassica pekinensis), die von allen Stadien der Grünen Pfirsichblattlaus (Myzus persicae) befallen sind, werden mit einer Wirkstoffzubereitung der gewünschten Konzentration gespritzt.
as §2

[6] = system: Nezara viridula; test: Nezara viridula spray test; assay type: in vivo; conditions: 500 g/ha; barley plants (Hordeum vulgare) with larvae; after 4 days
Source text: Bei diesem Test zeigten z. B. die folgenden Verbindungen der Herstellungsbeispiele Wirkung von 90 % bei einer Aufwandmenge von 100 g/ha: 1, 5, 6, 9. Nezara viridula -Sprühtest
as §1
Gerstenpflanzen (Hordeum vulgare), die mit Larven der Grünen Reiswanze (Nezara viridula) infiziert sind, werden mit einer Wirkstoffzubereitung der gewünschten Konzentration gespritzt.
Nach 4 Tagen wird die Wirkung in % bestimmt. Dabei bedeutet 100 %, dass alle Reiswanzen abgetötet wurden; 0 % bedeutet, dass keine Reiswanzen abgetötet wurden.

[7] = system: Ctenocephalides felis; test: Ctenocephalides felis oral test; assay type: in vivo; conditions: 100 ppm in citrated cattle blood; adult cat fleas; after 2 days
Method: Ctenocephalides felis - Oraltest
Zwecks Herstellung einer zweckmäßigen Wirkstoffzubereitung vermischt man 10 mg Wirkstoff mit 0,5 ml Dimethylsulfoxid. Durch Verdünnen mit citriertem Rinderblut erhält man die gewünschte Konzentration.
Ca. 20 nüchterne adulte Katzenflöhe (Ctenocephalides felis) werden in eine Kammer eingesetzt, die oben und unten mit Gaze verschlossen ist. Auf die Kammer wird ein Metallzylinder gestellt, dessen Unterseite mit Parafilm verschlossen ist. Der Zylinder enthält die Blut-Wirkstoffzubereitung, die von den Flöhen durch die Parafilmmembran aufgenommen werden kann.
Nach 2 Tagen wird die Abtötung in % bestimmt. Dabei bedeutet 100 %, dass alle Flöhe abgetötet wurden; 0 % bedeutet, dass keiner der Flöhe abgetötet wurde.

[8] = system: Nilaparvata lugens; test: Nilaparvata lugens test; assay type: in vivo; conditions: 500 g/ha; rice plants (Oryza sativa); after 4 days
Source text: Bei diesem Test zeigten z. B. die folgenden Verbindungen der Herstellungsbeispiele Wirkung von 90 % bei einer Aufwandmenge von 500 g/ha: 1. Nilaparvata lugens -Test
as §1
Reispflanzen (Oryza sativa) werden mit der Wirkstoffzubereitung der gewünschten Konzentration gespritzt und anschließend mit der Braunrückigen Reiszikade (Nilaparvata lugens) infiziert.
Nach 4 Tagen wird die Wirkung in % bestimmt. Dabei bedeutet 100 %, dass alle Reiszikaden abgetötet wurden; 0 % bedeutet, dass keine Reiszikaden abgetötet wurden.

[9] = system: Phaedon cochleariae; test: Phaedon cochleariae spray test; assay type: in vivo; conditions: 500 g/ha; Chinese cabbage leaf discs (Brassica pekinensis), larvae; after 7 days
Source text: Bei diesem Test zeigten z. B. die folgenden Verbindungen der Herstellungsbeispiele Wirkung von 100 % bei einer Aufwandmenge von 500 g/ha: 1. Phaedon cochleariae - Sprühtest
as §1
Chinakohlblattscheiben (Brassica pekinensis) werden mit einer Wirkstoffzubereitung der gewünschten Konzentration gespritzt und nach dem Abtrocknen mit Larven des Meerrettichblattkäfers (Phaedon cochleariae) besetzt.
Nach 7 Tagen wird die Wirkung in % bestimmt. Dabei bedeutet 100 %, dass alle Käferlarven abgetötet wurden; 0 % bedeutet, dass keine Käferlarven abgetötet wurden.

[10] = reversed-phase (C18) HPLC column, HPLC-MS (ESI-positiv), acidic or neutral range not given, read-out: LogP-Wert
[11] = HPLC-MS (ESI-positiv), acidic or neutral range not given
[12] = HPLC-MS/UPLC-MS neutral (method [b], pH 7,8)
[13] = pH 7.8, HPLC-MS/UPLC-MS neutral (method [b], pH 7,8), read-out: LogP-Wert

N#CC1(c2csc(N=c3ccccn3-c3ccc(C(F)F)nc3)n2)CC1 [Beispiel 12]
Wirkung in % [1]: 100%
chromatographic logP ([2]; pH 7.8, LogP-Wert (neutral)): 2.65

CC(C)(C)c1csc(N=c2ccccn2-c2ccc(C(F)(F)F)nc2)n1 [Beispiel 11]
Wirkung in % [1]: 100%
chromatographic logP ([2]; pH 2.7, LogP-Wert (HCOOH)): 1.47

CSc1cccc[n+]1-c1ccc(C(F)(F)F)nc1 [III-1]
chromatographic logP [2, 10]: 0.57

Cc1csc(N=c2ccccn2-c2ccc(C(F)(F)F)nc2)n1 [Beispiel 1]
Wirkung in % [1]: 100%
LogP-Wert [2, 11]: LogP-Wert = 1,08
Wirkung in % [3]: 90%
Wirkung in % [4]: 100%
Wirkung in % [5]: 90%
Wirkung in % [6]: 90%
Abtötung in % (Wirkung) [7]: 80%
Wirkung in % [8]: 100%
Wirkung in % [9]: 100%

CCc1csc(N=c2ccccn2-c2ccc(C(F)(F)F)nc2)n1 [Beispiel 5]
Wirkung in % [1]: 100%
chromatographic logP ([2]; pH 2.7, LogP-Wert (HCOOH)): 1.13
Wirkung in % [5]: 90%

FC(F)c1ccc(-n2ccccc2=Nc2nc(C3(F)CC3)cs2)cn1 [Beispiel 2]
Wirkung in % [1]: 100%
LogP-Wert [2, 12]: LogP-Wert = 3,02

FC(F)(F)c1ccc(-n2ccccc2=Nc2nc(C3CC3)cs2)cn1 [Beispiel 6]
Wirkung in % [1]: 100%
chromatographic logP ([2]; pH 2.7, LogP-Wert (HCOOH)): 1.34
Wirkung in % [5]: 90%

NC(=S)N=c1ccccn1-c1ccc(C(F)(F)F)nc1 [VII-1, N-[1-[(6-Trifluormethyl-3-pyridinyl)]-2(1H)-pyridinyliden]-thioharnstoff]
LogP-Wert [2, 11]: 1,12 and 1,14

NC(=S)N=c1ccccn1-c1ccc(C(F)F)nc1 [VII-2, N-[1-[(6-Difluormethyl-3-pyridinyl)]-2(1H)-pyridinyliden]-thioharnstoff]
chromatographic logP ([2]; pH 7.8, LogP-Wert): 0.7

N#CC1(c2csc(N=c3ccccn3-c3ccc(C(F)(F)F)nc3)n2)CC1 [Beispiel 8]
Wirkung in % [1]: 100%
chromatographic logP ([2]; pH 2.7, LogP-Wert (HCOOH)): 2.39
Wirkung in % [5]: 100%

N=c1ccccn1-c1ccc(C(F)(F)F)nc1 [IV-1, 6'-Trifluormethyl-[1(2H), 3'-bipyridin]-2-imin-hydrogeniodid]
chromatographic logP [2, 10]: 2.17

CSc1cccc[n+]1-c1ccc(C(F)F)nc1 [III-2]
chromatographic logP ([2]; LogP-Wert): 0.04

FC(F)(F)c1ccc(-n2ccccc2=Nc2nc(C(F)(F)F)cs2)cn1 [Beispiel 3, 1-[(6-Trifluormethyl-3-pyridyl]-N-(4-trifluormethylthiazol-2-yl))pyridin-2-imin]
Wirkung in % [1]: 100%
LogP-Wert [2, 11]: LogP-Wert = 3,60
Wirkung in % [5]: 100%

FC(F)(F)c1ccc(-n2ccccc2=Nc2ncccn2)cn1 [Beispiel 4, 1-[(6-Trifluormethyl-3-pyridyl]-N-(pyrimid-2-yl))pyridin-2-imin]
LogP-Wert [2, 11]: LogP-Wert = 1,38

CCOC(=O)NC(=S)N=c1ccccn1-c1ccc(C(F)(F)F)nc1 [VI-1, Ethyl N-[1-[(6-trifluormethyl-3-pyridyl)]-2-pyridylidene]carbamothioylcarbamat]
chromatographic logP ([2]; pH 7.8, LogP-Wert): 1.71

CCOC(=O)NC(=S)N=c1ccccn1-c1ccc(C(F)F)nc1 [VI-2, Ethyl N-[1-[(6-difluormethyl-3-pyridyl)]-2-pyridylidene]carbamothioylcarbamat]
chromatographic logP ([2]; pH 7.8, LogP-Wert): 1.28

N=C(N=c1ccccn1-c1ccc(C(F)(F)F)nc1)SCC(=O)C(F)(F)F [N-[1-[(6-trifluormethyl-3-pyridyl)]-2-pyridyliden]-imidothio-(3,3,3-trifluoro-2-oxopropyl)-ester]
LogP-Wert [2, 12]: 2,39
chromatographic logP [2, 13]: 2.37

FC(F)(F)c1ccc(-n2ccccc2=Nc2nc(C3(F)CC3)cs2)cn1 [Beispiel 9]
Wirkung in % [1]: 100%
chromatographic logP ([2]; pH 2.7, LogP-Wert (HCOOH)): 2.04
Wirkung in % [5]: 90%

CC1(c2csc(N=c3ccccn3-c3ccc(C(F)(F)F)nc3)n2)CC1 [Beispiel 10]
Wirkung in % [1]: 100%
chromatographic logP ([2]; pH 7.8, LogP-Wert (neutral)): 3.99

FC(F)(F)c1ccc(-n2ccccc2=Nc2nc(C(F)(F)C(F)(F)F)cs2)cn1 [Beispiel 7]
Wirkung in % [1]: 100%
chromatographic logP ([2]; pH 2.7, LogP-Wert (HCOOH)): 4.03

FC(F)c1ccc(-n2ccccc2=S)cn1 [II-2, 6'-Difluormethyl-[1(2H), 3'-bipyridin]-2-thion]
LogP-Wert [2]: 1,23
chromatographic logP ([2]; LogP-Wert): 1.18

FC(F)(F)c1ccc(-n2ccccc2=S)cn1 [II-1, 6'-Trifluormethyl-[1(2H), 3'-bipyridin]-2-thion]
chromatographic logP [2, 13]: 1.67
